Experimental data: publication PMC8845285, “Serotoninergic receptor ligands improve Tamoxifen effectiveness on breast cancer cells” (BMC Cancer, 2022)

What was measured:
[1] = target: T1, serotonin 5-HT2A receptor (Rattus norvegicus, UniProt P14842); assay: radioligand binding assay, 5-HT2A, [3H]ketanserin; details: rat brain cortex; for Ki: read-out: Ki ± SD, 5-HT2A [3H]Ketanserin
T1 construct: serotonin 5-HT2A receptor, [^3H]ketanserin, rat brain cortex; from tissue; host or cells: rat brain cortex
Method: All reactions were monitored by TLC, carried out on Merck 60G F254 plates with fluorescent indicator and the plates were visualized with UV light (254 nm). Each final compound and intermediate was purified by silica gel column chromatography (Macherey-Nagel 60 0,063–0,2 mm/70–230 mesh). […] Unless otherwise stated, all spectra were recorded in CDCl3. Chemical shifts are reported in ppm using Me4Si as internal standard. The following abbreviations are used to describe peak patterns when appropriate: s (singlet), d (doublet), t (triplet), m (multiplet), q (quartet), qt (quintet), dd (double doublet), ddd (double dd), bs (broad singlet). Mass spectra of the final products were performed on LTQ Orbitrap XL™ Fourier transform mass spectrometer (FTMS) equipped with ESI ION MAX™ source (Thermo Fisher, San José, USA). Melting points were determined using a Buchi B-540 hot-stage instrument and are uncorrected. […] All the compounds were dissolved in 5% DMSO. The following specific radioligands and tissue sources were used: (a)serotonin 5-HT1A receptor, [^3H]-8-OH-DPAT, rat brain cortex; (b) serotonin 5-HT2A receptor, [^3H]ketanserin, rat brain cortex; (c)serotonin 5-HT2C receptor, [^3H]mesulergine, rat brain cortex. Non-specific binding was determined as described in the experimental section, and specific binding as the difference between total and non-specific binding. […] The IC50 values obtained were used to calculate apparent inhibition constants (Ki) by the method of Cheng and Prussoff, from the following equation: Ki = IC50/(1 + S/KD) where S represents the concentration of the hot ligand used and KD its receptor dissociation constant (KD values, obtained by Scatchard analysis, were calculated for each labeled ligand). Radioligand binding assays for 5-HT1A were performed following a published procedure. 5-HT2A and 5-HT2C binding assays were performed reported by Herndon et al..

[2] = system: MDA-MB231 cells; assay: MDA-MB231 cell viability, sulforhodamine B assay; assay type: cell-based, human; details: for inhibition of MDA-MB231 cell growth: 100 μM, 72 h; for IC50: Homo sapiens, MDA-MB-231, 72 h treatment
Method: (§1) MCF7 (ER^+, PR^+, HER2^−), SKBR3 (ER^−, PR^+, HER2^+) and MDA-MB231 (ER^−, PR^−, HER2^−) human BC cells and MCF10A non-cancer breast epithelial cells were available in our laboratory. MCF7, SKBR3 and MDA-MB231 cells were cultured in DMEM, supplemented with 10% FBS, 2 mM glutamine, 100 units/ml penicillin and 100 units/ml streptomycin. MCF10A cells were cultured in MEBM, supplemented with 0.4% BPE, 0.1% hEGF, 0.1%, Insulin, 0.1% Hydrocortisone and 0.1% GA-1000. […] Treatment with SER were carried out in culture conditions. Treatment with Tamoxifen and/or SER were carried out upon 48 h estrogen starvation in phenol-red free medium supplemented with 10% Charcoal Stripped (C/S) FBS, 2 mM glutamine, 100 units/ml penicillin and 100 units/ml streptomycin.
(§2) Cells were fixed with 50% trichloroacetic acid for at least 2 h at 4 °C, washed with distilled and de-ionized water, air-dryed and stained 30 min with 0.4% sulforhodamine B in 1% acetic acid. Unbound dye was removed and 10 mM tris-HCl solution (pH 7.5) was added to dissolve the protein-bound dye. Cell survival was assessed by optical density determination at 510 nm using a microplate reader.
Cell viability was assessed, after 72 h, by sulforhodamine B assay (see Methods).

[3] = system: MCF7 cells; assay: MCF7 responsiveness to Tamoxifen in presence of SER, sulforhodamine B assay; assay type: cell-based, human; details: Tamoxifen 5 μM, E2 100 nM, 72 h, estrogen-starved MCF7
Method: as §1, §2
After 72 h, cell cycle was assessed by Propidium Iodide staining (see Methods). […] As positive control, the cells were treated with E2 and SER alone (without Tamoxifen, dotted line). After 72 h, cell viability was assessed by sulforhodamine B assay (see Methods). […] After 72 h, mRNA levels of CTGF were determined by qPCR (see Methods and Table 1). Data were normalized on Ribosomal Protein S23 (Rps23) gene as internal standard and were reported as CTGF mRNA levels in MCF7 treated with SER relative to those in untreated cells (dotted line). a-c Data represent the mean ± SD of at least three independent triplicate experiments. * denotes statistically significant values compared with (a) percentage of untreated cells in G0/G1, S and G2/M cell cycle phase (*pval<0.05,**pval<0.01), (b) positive control (*adjp<0.05,**adjp <0.01,***adjp<0.001), (c) untreated cells (pval<0.05); # denotes statistically significant values compared with cells treated with Tamoxifen in absence of SER (#pval<0.05)
Fig. 7 Effect of low doses of SER79 and SER68 on MCF7 and MCF10A cells. a Estrogen-starved MCF7 cells (48 h) were treated with Tamoxifen (5 μM) in presence of E2 (100nM) and SER79 (5 μM) or SER68 (20 μM, 5 μM). As positive control, the cells were treated with E2 and SER alone (without Tamoxifen, dotted line). After 72 h, cell viability was assessed by sulforhodamine B assay (see Methods). […] After 72 h, mRNA levels of CTGF were determined by qPCR (see Methods and Table 1). Data were normalized on Ribosomal Protein S23 (Rps23) gene as internal standard. Bars represent CTGF mRNA levels in MCF7 treated with SER relative to those in untreated cells (dotted line). c MCF10A non-cancer breast epithelial cells were treated with SER79 (5 μM) or SER68 (20 μM). After 72 h, cell viability was assessed by sulforhodamine B assay (see Methods).

[4] = system: HT2C receptor; assay: 5-HT2C protein levels, Western blot; assay type: cell-based, human; details: 72 h, MCF7, Tamoxifen-cultured MCF7 and MCF7-R cells
Method: RIPA buffer (Promega, Madison, Wisconsin, USA) was used for proteins’ extraction. Lysates ([…] protein/sample) were blotted with anti-5HT2C (1:500). Total lysates were normalized using anti-Vinculin (1:10000). The autoradiographs shown were obtained by ECL kit (Bio-Rad, Hercules, CA, USA).
Figure S4. 5-HT2C protein in MCF7, Tamoxifen-cultured MCF7 and MCF-R cells in absence or in presence of SER.
Cells were treated with 5µM SER79 or 20µM SER68. Alter 72h, cell lysa te swere obtained and 5-HT2C protein le ve lswere measured by western blot analysis. Vinculin was used for protein le ve ls normalization. […]
(1 picture or pasted object on this page, not shown here)

T1 sequence (P14842 whole entry): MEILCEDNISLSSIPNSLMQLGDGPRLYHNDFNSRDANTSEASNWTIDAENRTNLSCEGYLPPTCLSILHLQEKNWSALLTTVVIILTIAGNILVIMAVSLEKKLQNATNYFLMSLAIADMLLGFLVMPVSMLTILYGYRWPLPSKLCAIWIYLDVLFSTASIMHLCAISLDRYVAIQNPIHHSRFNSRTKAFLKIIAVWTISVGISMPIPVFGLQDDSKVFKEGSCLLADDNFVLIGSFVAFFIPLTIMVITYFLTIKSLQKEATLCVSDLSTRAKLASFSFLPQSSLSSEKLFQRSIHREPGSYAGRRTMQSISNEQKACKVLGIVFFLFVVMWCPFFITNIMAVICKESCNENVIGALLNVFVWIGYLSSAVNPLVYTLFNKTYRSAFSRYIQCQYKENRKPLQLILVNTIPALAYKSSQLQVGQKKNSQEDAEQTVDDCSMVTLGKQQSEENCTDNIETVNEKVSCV

| SMILES | Ki [1] [µM] | inhibition of MDA-MB231 cell growth [2] | IC50 [2] [µM] | further decrease of cell viability compared with Tamoxifen alone ([3]; SER 5 μM) | further decrease of cell viability compared with Tamoxifen alone ([3]; SER 20 μM) | further decrease of cell viability compared with Tamoxifen alone ([3]; SER at IC50 dose) | change in protein levels of HT2C receptors upon SER treatment ([4]; 20 µM) | Ki ± SD, 5-HT2A [3H]Ketanserin [1] | change in protein levels of HT2C receptors upon SER treatment ([4]; 5 µM) |
| --- | --- | --- | --- | --- | --- | --- | --- | --- | --- |
| O=C1C2C3C=CC(C3)C2C(=O)N1OCCN1CCN(c2ccc(Cl)c(Cl)c2)CC1 (centres unmarked) [SER68] | 0.153 ± 0.07 | able to inhibit | 171 ± 37.3 | No further effect | ≈ 20% | ≈ 30% | no difference in protein levels |  |  |
| N#CN=C(NCCCN1CCN(C(c2ccc(F)cc2)c2ccc(F)cc2)CC1)c1ccccn1 [SER79] | 0.504 ± 0.0395 | able to inhibit | 117 | ≈ 15% |  | ≈ 15% |  | weak | no difference in protein levels |
